Test results: ChEMBL document CHEMBL1201862, “PubChem BioAssay data set” (2004)
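Method: 48-hour compound exposure of cells in 96-well plates, five concentrations, linear interpolation of endpoints. GI50 is the concentration that inhibits growth by half.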 Activity calls are given as the source filed them. Cut-off read from the data, not from the text of the source: active = GI50 up to about 1.1 µM and inactive = higher.

Legend:
Assay in all cases: inhibition of tumour cell growth, NCI panel, 48 h
M19-MEL = test system: M19-MEL
DLD-1 = test system: DLD-1
SF-268 = test system: SF-268
HL-60 = test system: HL-60
Malme-3M = test system: Malme-3M
OVCAR-4 = test system: OVCAR-4
HOP-18 = test system: HOP-18
NCI/ADR-RES = test system: NCI/ADR-RES
OVCAR-5 = test system: OVCAR-5
RPMI-8226 = test system: RPMI-8226
RXF 393 = test system: RXF 393
DMS-114 = test system: DMS-114
HT-29 = test system: HT-29
ACHN = test system: ACHN
MDA-MB-435 = test system: MDA-MB-435
PC-3 = test system: PC-3
BT-549 = test system: BT-549
T47D = test system: T47D
DU-145 = test system: DU-145
SNB-78 = test system: SNB-78

## CSc1nc(SC)c2cnn(CC3CO3)c2n1 (configuration not stated)
M19-MEL
  GI50: 13.6 µM (inactive)
DLD-1
  GI50: 22.3 µM (inactive)
SF-268
  GI50: 9.73 µM (inactive)
HL-60
  GI50: 17.5 µM (inactive)
Malme-3M
  GI50: 23.5 µM (inactive)
OVCAR-4
  GI50: 20.7 µM (inactive)
HOP-18
  GI50: 20.9 µM (inactive)
NCI/ADR-RES
  GI50: 13.8 µM (inactive)
OVCAR-5
  GI50: 17 µM (inactive)
RPMI-8226
  GI50: 35.1 µM (inactive)
RXF 393
  GI50: 17.8 µM (inactive)
DMS-114
  GI50: 17.4 µM (inactive)
HT-29
  GI50: 22 µM (inactive)

## Cc1cc(N(CCOS(C)(=O)=O)CCOS(C)(=O)=O)ccc1C=O
SF-268
  GI50: 6.56 µM (inactive)
HL-60
  GI50: 2.98 µM (inactive)
Malme-3M
  GI50: 7.91 µM (inactive)
ACHN
  GI50: 0.379 µM (active)
OVCAR-4
  GI50: 18.2 µM (inactive)
MDA-MB-435
  GI50: 11.5 µM (inactive)
NCI/ADR-RES
  GI50: 11.7 µM (inactive)
OVCAR-5
  GI50: 6.7 µM (inactive)
RPMI-8226
  GI50: 4.02 µM (inactive)
PC-3
  GI50: 20 µM (inactive)
HT-29
  GI50: 4.49 µM (inactive)
BT-549
  GI50: 15.2 µM (inactive)

## CCOC(=O)C1=C(C)N(c2ccc(OC)cc2)C2(O)C=CC(O)=C3C(=O)c4ccccc4C(=O)C312 (configuration not stated)
SF-268
  GI50: 2.13 µM (inactive)
T47D
  GI50: 12.5 µM (inactive)
DU-145
  GI50: 14.4 µM (inactive)
HL-60
  GI50: 5.93 µM (inactive)
Malme-3M
  GI50: < 0.01 µM (active)
ACHN
  GI50: 14.3 µM (inactive)
OVCAR-4
  GI50: 2.99 µM (inactive)
MDA-MB-435
  GI50: 4.2 µM (inactive)
NCI/ADR-RES
  GI50: 3.01 µM (inactive)
OVCAR-5
  GI50: 15.8 µM (inactive)
RPMI-8226
  GI50: 2.44 µM (inactive)
PC-3
  GI50: 5.53 µM (inactive)
HT-29
  GI50: 17.9 µM (inactive)
BT-549
  GI50: 14 µM (inactive)

## O=C(NN1C(=O)C(Cl)C1c1ccc([N+](=O)[O-])cc1)c1ccccc1O (configuration not stated)
M19-MEL
  GI50: > 100 µM (inactive)
SF-268
  GI50: > 100 µM (inactive)
HL-60
  GI50: > 100 µM (inactive)
Malme-3M
  GI50: 43 µM (inactive)
OVCAR-4
  GI50: > 100 µM (inactive)
OVCAR-5
  GI50: > 100 µM (inactive)
RPMI-8226
  GI50: > 100 µM (inactive)
RXF 393
  GI50: > 100 µM (inactive)
DMS-114
  GI50: > 100 µM (inactive)
HT-29
  GI50: > 100 µM (inactive)

## CC(=O)NC(c1nc2cc(C)c(C)cc2[nH]1)c1nc2cc(C)c(C)cc2[nH]1
SF-268
  GI50: 23.2 µM (inactive)
T47D
  GI50: 43 µM (inactive)
DU-145
  GI50: 20.2 µM (inactive)
HL-60
  GI50: 28.2 µM (inactive)
Malme-3M
  GI50: 29 µM (inactive)
ACHN
  GI50: 29.2 µM (inactive)
OVCAR-4
  GI50: 21.9 µM (inactive)
MDA-MB-435
  GI50: 17.7 µM (inactive)
NCI/ADR-RES
  GI50: 28.9 µM (inactive)
OVCAR-5
  GI50: 41.7 µM (inactive)
RPMI-8226
  GI50: 4.57 µM (inactive)
PC-3
  GI50: 24.8 µM (inactive)
RXF 393
  GI50: 26.3 µM (inactive)
HT-29
  GI50: 15.2 µM (inactive)
BT-549
  GI50: 23.2 µM (inactive)

## COc1cccc2c1C(=O)c1c(O)c3c(c(O)c1C2=O)CC(O)(C(=O)CO)CC3OC1CC(N)C(I)C(C)O1 (configuration not stated)
M19-MEL
  GI50: 2.7 µM (inactive)
DLD-1
  GI50: 2.54 µM (inactive)
SF-268
  GI50: 15.9 µM (inactive)
HL-60
  GI50: 0.428 µM (active)
Malme-3M
  GI50: 6.05 µM (inactive)
OVCAR-4
  GI50: 4.01 µM (inactive)
HOP-18
  GI50: 7.96 µM (inactive)
NCI/ADR-RES
  GI50: 12.4 µM (inactive)
OVCAR-5
  GI50: 13.5 µM (inactive)
RPMI-8226
  GI50: 4.5 µM (inactive)
RXF 393
  GI50: 2.44 µM (inactive)
DMS-114
  GI50: 1.63 µM (inactive)
HT-29
  GI50: 3.15 µM (inactive)
SNB-78
  GI50: 25.7 µM (inactive)

## CC(C)N1CSC(=S)N(Cc2ccccc2)C1
SF-268
  GI50: 4.38 µM (inactive)
T47D
  GI50: 4.29 µM (inactive)
HL-60
  GI50: 0.197 µM (active)
ACHN
  GI50: > 10 µM (inactive)
OVCAR-4
  GI50: > 10 µM (inactive)
MDA-MB-435
  GI50: 3.84 µM (inactive)
NCI/ADR-RES
  GI50: > 10 µM (inactive)
RPMI-8226
  GI50: 2.58 µM (inactive)
PC-3
  GI50: 3.75 µM (inactive)
RXF 393
  GI50: 2.37 µM (inactive)
HT-29
  GI50: 2.43 µM (inactive)

## c1ccc(C(c2ccccc2)[P+](c2ccccc2)(c2ccccc2)c2ccccc2)cc1
M19-MEL
  GI50: 0.397 µM (active)
DLD-1
  GI50: 2.1 µM (inactive)
SF-268
  GI50: 0.556 µM (active)
HL-60
  GI50: 0.182 µM (active)
Malme-3M
  GI50: 0.726 µM (active)
OVCAR-4
  GI50: 0.479 µM (active)
HOP-18
  GI50: 0.369 µM (active)
NCI/ADR-RES
  GI50: 35.2 µM (inactive)
OVCAR-5
  GI50: 0.933 µM (active)
RPMI-8226
  GI50: 0.226 µM (active)
RXF 393
  GI50: 2.24 µM (inactive)
DMS-114
  GI50: 0.324 µM (active)
HT-29
  GI50: 0.332 µM (active)
SNB-78
  GI50: 0.612 µM (active)

## Nc1nc2cc(COc3ccc(C(=O)O)cc3)ccc2nc1-c1ccccc1
SF-268
  GI50: > 10 µM (inactive)
T47D
  GI50: > 10 µM (inactive)
DU-145
  GI50: > 10 µM (inactive)
HL-60
  GI50: > 10 µM (inactive)
ACHN
  GI50: > 10 µM (inactive)
OVCAR-4
  GI50: > 10 µM (inactive)
MDA-MB-435
  GI50: > 10 µM (inactive)
OVCAR-5
  GI50: > 10 µM (inactive)
RPMI-8226
  GI50: > 10 µM (inactive)
PC-3
  GI50: > 10 µM (inactive)
RXF 393
  GI50: > 10 µM (inactive)
HT-29
  GI50: > 10 µM (inactive)

## Nc1c(S(=O)(=O)O)cc2cc(S(=O)(=O)O)ccc2c1/N=N/c1ccc(-c2ccc(/N=N/c3c(N)c(S(=O)(=O)O)cc4cc(S(=O)(=O)O)ccc34)c(S(=O)(=O)O)c2)cc1
M19-MEL
  GI50: > 100 µM (inactive)
DLD-1
  GI50: > 100 µM (inactive)
SF-268
  GI50: > 100 µM (inactive)
HL-60
  GI50: > 71.1 µM (inactive)
Malme-3M
  GI50: > 100 µM (inactive)
OVCAR-4
  GI50: 29.4 µM (inactive)
HOP-18
  GI50: > 100 µM (inactive)
NCI/ADR-RES
  GI50: > 100 µM (inactive)
OVCAR-5
  GI50: > 100 µM (inactive)
RPMI-8226
  GI50: > 100 µM (inactive)
RXF 393
  GI50: > 100 µM (inactive)
DMS-114
  GI50: > 100 µM (inactive)
HT-29
  GI50: > 100 µM (inactive)
SNB-78
  GI50: 97.7 µM (inactive)

## COc1cc2cc3c4cc(OC)c(OC)cc4cc[n+]3cc2cc1OC
M19-MEL
  GI50: > 100 µM (inactive)
DLD-1
  GI50: > 100 µM (inactive)
SF-268
  GI50: 0.435 µM (active)
Malme-3M
  GI50: > 100 µM (inactive)
OVCAR-4
  GI50: > 100 µM (inactive)
HOP-18
  GI50: > 100 µM (inactive)
NCI/ADR-RES
  GI50: > 100 µM (inactive)
OVCAR-5
  GI50: > 100 µM (inactive)
RPMI-8226
  GI50: > 100 µM (inactive)
RXF 393
  GI50: 46.6 µM (inactive)
DMS-114
  GI50: 1 µM (active)
HT-29
  GI50: > 100 µM (inactive)
SNB-78
  GI50: > 74.3 µM (inactive)
